Measurements from patent US10670605B2, “Cysteine reactive probes and uses thereof” (The Scripps Research Institute, priority 2015, dated 2020).
Each block holds one compound with its values, some of them ahead of it. *: point of attachment. Cbz = O=C(OCc1ccccc1)*; CH2F = FC*

Key:
[1] = tested on: primary human T cells; experiment: FasL-induced apoptosis in activated primary T cells; type: cell-based; conditions: anti-CD3, anti-CD28-activated primary human T cells
[2] = molecular target: T1, CASP8 (Homo sapiens, UniProt Q14790); experiment: Quantitative proteomics (ABPP-SILAC) with probe 61 in cells; type: cell-based; conditions: primary human T cells and Jurkat cells
T1 construct: caspases measured by quantitative proteomics in Jurkat cells treated with 7, 63-R, or 62 followed by probe 61; endogenous in cells; host or cells: Jurkat cells (SILAC), treated in situ
T1 sequence (Q14790 217-479): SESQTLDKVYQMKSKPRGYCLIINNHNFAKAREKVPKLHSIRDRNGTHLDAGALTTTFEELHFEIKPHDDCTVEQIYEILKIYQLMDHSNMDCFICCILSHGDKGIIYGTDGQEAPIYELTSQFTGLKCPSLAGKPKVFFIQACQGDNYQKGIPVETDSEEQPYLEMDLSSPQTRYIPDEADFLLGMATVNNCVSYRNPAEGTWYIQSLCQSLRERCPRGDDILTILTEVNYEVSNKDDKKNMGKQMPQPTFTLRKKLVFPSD

[3] = molecular target: T2, pro-CASP8 (Homo sapiens, UniProt Q14790, D374A/D384A); experiment: Click probe 61 labeling of pro-CASP8 and its competition; type: binding; conditions: 300 nM protein in MDA-MB-231 lysate; read-out: apparent IC50 for blockade of 61 labeling of pro-CASP8
T2 construct: a truncated CASP8 (residues 217-479) without the CARD domain; His6 (C); made in house; host or cells: E. coli BL21(DE3)pLysS
T2 sequence (Q14790 217-479 D374A/D384A): as the sequence (Q14790 217-479) above, with D158A, D168A counted along it

[4] = molecular target: pro-CASP10 (Homo sapiens, UniProt Q92851); experiment: Blockade of probe 61 labeling of pro-CASP10; type: binding; conditions: 300 nM protein in MDA-MB-231 lysate; read-out: apparent IC50 for blockade of 61 labeling of pro-CASP10
pro-CASP10, sequence (Q92851 220-521): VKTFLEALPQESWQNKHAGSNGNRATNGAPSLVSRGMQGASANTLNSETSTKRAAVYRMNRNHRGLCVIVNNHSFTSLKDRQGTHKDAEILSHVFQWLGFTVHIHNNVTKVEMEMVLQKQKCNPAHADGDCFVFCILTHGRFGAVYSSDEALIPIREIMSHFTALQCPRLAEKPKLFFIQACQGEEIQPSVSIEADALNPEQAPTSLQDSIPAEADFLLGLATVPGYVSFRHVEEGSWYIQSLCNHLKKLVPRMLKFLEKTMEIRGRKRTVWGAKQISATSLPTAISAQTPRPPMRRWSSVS

[5] = tested on: Jurkat cells; experiment: FasL-induced (extrinsic) apoptosis, CellTiter-Glo viability; type: cell-based, human
[6] = molecular target: T3, active CASP8 (Homo sapiens, UniProt Q14790); experiment: CASP8 in vitro activity assay (substrate); type: biochemical; set-up: recombinant, purified active-CASP8 and active-CASP3 added to MDA-MB-231 cell lysates; His6 (C); made in house; host or cells: E. coli BL21(DE3)pLysS; conditions: fragments 100 μM; DEVD-CHO 20 μM
T3 sequence (Q14790 217-374 limits assumed): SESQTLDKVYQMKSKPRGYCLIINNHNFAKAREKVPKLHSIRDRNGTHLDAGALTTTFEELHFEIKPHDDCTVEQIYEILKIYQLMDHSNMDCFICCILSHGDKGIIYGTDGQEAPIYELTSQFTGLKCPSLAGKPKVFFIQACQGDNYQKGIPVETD
T3 sequence (Q14790 385-479 limits assumed): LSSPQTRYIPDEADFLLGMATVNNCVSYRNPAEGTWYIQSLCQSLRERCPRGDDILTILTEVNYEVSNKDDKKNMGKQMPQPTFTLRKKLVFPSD
Protocol: Caspase 3 and 8 assays were conducted with CASP8 activity assay kit (BioVision, K112-100) and Caspase 3 activity assay kit (Invitrogen, EnzChek® Caspase-3 Assay Kit), following the manufacturer's instructions. Briefly, recombinant Caspase 3 (10 μM) was added to soluble Ramos lysates (1 mg/mL) to a 100 nM final concentration of protease. Caspase 8 (30 μM) was added to soluble Ramos lysates to a 1 μM final concentration of protease. In triplicate, 50 μL lysate was treated with either DMSO, DEVD-CHO (“DEVD” disclosed as SEQ ID NO: 857) (20 μM) or the indicated compounds (100 μM) for 1 h, following which 50 μL of 2× reaction buffer containing 10 mM DTT and 5 μL substrate (4 mM stock in DMSO of IETD-AFC (“IETD” disclosed as SEQ ID NO: 858) for CASP8; 10 mM stock in DMSO of DEVD-AMC (“DEVD” disclosed as SEQ ID NO: 857) for CASP3) was added to each well and the samples were incubated at ambient temperature for 2 h. Caspase activity was measured from the increase in fluorescence (excitation 380 nm emission 460 nm). Experiments were performed in triplicate. Background was calculated from samples lacking the recombinant caspase.

[7] = molecular target: T4, active CASP10 (Homo sapiens, UniProt Q92851); experiment: Active CASP10 activity assay (AEVD-AMC substrate); type: biochemical; conditions: fragments 25 μM; DEVD-CHO 20 μM
T4 sequence (Q92851 220-415 limits assumed): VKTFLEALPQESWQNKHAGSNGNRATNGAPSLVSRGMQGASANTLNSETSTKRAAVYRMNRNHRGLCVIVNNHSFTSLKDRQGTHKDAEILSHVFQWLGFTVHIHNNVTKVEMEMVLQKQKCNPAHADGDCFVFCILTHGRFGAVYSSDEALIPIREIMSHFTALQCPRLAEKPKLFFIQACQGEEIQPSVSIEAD
T4 sequence (Q92851 416-521 limits assumed): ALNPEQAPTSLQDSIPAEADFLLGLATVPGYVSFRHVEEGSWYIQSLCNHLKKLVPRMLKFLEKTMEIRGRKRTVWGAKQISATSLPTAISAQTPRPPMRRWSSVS

[8] = molecular target: T3, active CASP8; experiment: Rho-DEVD-AOMK probe labeling of active CASP8; conditions: 7 50 μM; Ac-DEVD-CHO 20 μM
[9] = tested on: Jurkat cells; experiment: Staurosporine-induced (intrinsic) apoptosis, CellTiter-Glo viability; type: cell-based, human; conditions: 30 μM (VAD-FMK 100 μM), 30 min before STS, 6 h
Protocol: 4 mL of Jurkat cells in RPMI (1.5 million cells/mL) were treated with the indicated compound at 30 μM for 30 min (50 mM stock solution in DMSO). Z-VAD-FMK (EMD Millipore Biosciences, 627610) and was used at a final concentration of 100 μM. After pre-incubation, FASL (4 μL of […] stock solution of SuperFasLigandm in water, final concentration=100 ng/mL, Enzo life Sciences) or staurosporine (8 μL of 1 mM stock solution in DMSO, final concentration=2 μM, Fisher Scientific, 50664333). […] The gels were transferred to nitrocellulose membranes and were immunoblotted overnight with the indicated antibodies. For measurements of cell viability, in quadruplicate for each condition, 150,000 cells (100 μL of 1.5 million cells/mL) were plated in Nunc™ MicroWell™ 96-Well Optical-Bottom Plates with Polymer Base (Fisher Scientific). Compounds, FASL and STS were used at the same concentrations indicated above with a 30 minute pre-incubation with compound, followed by 6 hours with either STS or FASL or DMSO. Cell viability was measured with CellTiter-Glo® Luminescent Cell Viability Assay (Promega) and was read on a Biotech Synergy 4 plate reader.

blockade of CASP8 (chemical proteomics with probe 61) [2]: inhibited | IC50 [3]: 700 nM | IC50 [4]: > 100000 nM
Compound: O=C(c1ccc(N2CCOCC2)cc1)N1CCC[C@@H](N(C(=O)CCl)c2ccccc2)C1 [63-R]
FasL-induced apoptosis [1]: substantial resistance | FasL-induced apoptosis ([5]; Jurkat cells, concentration series, 4 h): fully blocked

CASP8 activity (substrate assay) [6]: blocked | activity of active CASP10 (substrate assay) [7]: inhibited | Rho-DEVD-AOMK labeling of active CASP8 [8]: blocked
Compound: Ac-DEVD-CHO [reference compound]

Compound: Cbz-Val-Ala-Asp-CH2F [reference compound]
STS-induced intrinsic apoptosis [9]: prevented | FasL-induced apoptosis ([5]; 30 μM (VAD-FMK 100 μM), 30 min before FASL, 6 h): prevented
